Reference: ChEMBL document CHEMBL1144281, “Inhibitors of type I MetAPs containing pyridine-2-carboxylic acid thiazol-2-ylamide. Part 2: SAR studies on the pyridine ring 3-substituent” (Bioorg Med Chem Lett, 2005)

Experiments:
[1] = Inhibitory concentration against Methionine aminopeptidase-1 (ScMetAP1); design: species or system Saccharomyces cerevisiae
[2] = Inhibitory concentration against Methionine aminopeptidase-1 (EcMetAP1); design: species or system Escherichia coli

SMILES	IC50 [1]	IC50 [2]
O=C(CN1CCOCC1)Nc1cccnc1C(=O)Nc1nccs1	510 nM	59 nM
O=C(CN1CCCC1)Nc1cccnc1C(=O)Nc1nccs1	150 nM	90 nM
O=C(CC1CCCC1)Nc1cccnc1C(=O)Nc1nccs1	6720 nM	790 nM
CC1(C)OC1CC(=O)Nc1cccnc1C(=O)Nc1nccs1 (centres undefined)	3370 nM	700 nM
CC(C)(C)OC(=O)NCC(=O)Nc1cccnc1C(=O)Nc1nccs1	380 nM	49 nM
O=C(O)CCC(=O)Nc1cccnc1C(=O)Nc1nccs1	2270 nM	140 nM
O=C(Nc1cccnc1C(=O)Nc1nccs1)c1cccnc1	330 nM	60 nM
CN(C)CC(=O)Nc1cccnc1C(=O)Nc1nccs1	420 nM	120 nM
O=C(Nc1nccs1)c1ncccc1NC(=O)C1CCC1	> 100000 nM	> 100000 nM
O=C(Nc1nccs1)c1ncccc1NC(=O)C1CCCC1	2580 nM	350 nM
O=C(CC1=CCCC1)Nc1cccnc1C(=O)Nc1nccs1	5070 nM	190 nM
CC(C)=CC(=O)Nc1cccnc1C(=O)Nc1nccs1	770 nM	220 nM
O=C(O)c1ccccc1C(=O)Nc1cccnc1C(=O)Nc1nccs1	2270 nM	330 nM
O=C(Nc1cccnc1C(=O)Nc1nccs1)C1=CCCCC1	21900 nM	970 nM
O=C(CC1=CCCCC1)Nc1cccnc1C(=O)Nc1nccs1	8910 nM	120 nM
CC1(C)OC1CCC(=O)Nc1cccnc1C(=O)Nc1nccs1 (centres undefined)	3300 nM	560 nM
CCN(CC)CC(=O)Nc1cccnc1C(=O)Nc1nccs1	230 nM	49 nM
CC(C)(C)OC(=O)NCCC(=O)Nc1cccnc1C(=O)Nc1nccs1	150 nM	49 nM
NCCC(=O)Nc1cccnc1C(=O)Nc1nccs1	130 nM	74 nM
CC(C)=CCCC(=O)Nc1cccnc1C(=O)Nc1nccs1	310 nM	610 nM
O=C(Nc1nccs1)c1ccccn1	7000 nM	5000 nM
C=C(C)CC(=O)Nc1cccnc1C(=O)Nc1nccs1	4670 nM	150 nM

Results, then the compound that gave them:

IC50 [1]	IC50 [2]	SMILES
190 nM	53 nM	O=C(CN1CCCCC1)Nc1cccnc1C(=O)Nc1nccs1
620 nM	> 100000 nM	C=CC(=O)Nc1cccnc1C(=O)Nc1nccs1
230 nM	57 nM	O=C(CN(O)c1ccccc1)Nc1cccnc1C(=O)Nc1nccs1
12200 nM	510 nM	C=CCCC(=O)Nc1cccnc1C(=O)Nc1nccs1
770 nM	50 nM	CCOC(=O)C(=O)Nc1cccnc1C(=O)Nc1nccs1
1520 nM	140 nM	O=C(O)CC(=O)Nc1cccnc1C(=O)Nc1nccs1
2560 nM	130 nM	O=C(Nc1nccs1)c1ncccc1NC(=O)C1CC1
15100 nM	810 nM	O=C(Nc1nccs1)c1ncccc1NC(=O)C1CC=CCC1 (centres undefined)
140 nM	240 nM	CC(C)=CCC(=O)Nc1cccnc1C(=O)Nc1nccs1
> 100000 nM	620 nM	O=C(O)C(=O)Nc1cccnc1C(=O)Nc1nccs1
820 nM	> 100000 nM	C/C=C/C(=O)Nc1cccnc1C(=O)Nc1nccs1
720 nM	75 nM	CCOC(=O)CC(=O)Nc1cccnc1C(=O)Nc1nccs1
5170 nM	360 nM	O=C(Nc1cccnc1C(=O)Nc1nccs1)C1=CCCC1
210 nM	92 nM	NCC(=O)Nc1cccnc1C(=O)Nc1nccs1
380 nM	130 nM	C=CCC(=O)Nc1cccnc1C(=O)Nc1nccs1
